According to patent US20230055237A1, “COMPOUNDS AND METHODS FOR THE TREATMENT OF CYSTIC FIBROSIS” (Flatley Discovery Lab, LLC, priority 2019, published 2023):

Biological target: T1, CFTR (Homo sapiens, UniProt P13569, DEL508-508)
T1 construct: Primary CF airway epithelial cells were obtained from the UNC Cystic Fibrosis Tissue Procurement and Cell Culture Core; host or cells: primary CF airway epithelial cells, differentiated at the air-liquid interface
Assay: Equivalent current assay in primary CF airway epithelial cells (NAUC, combination with 1st site corrector FDL169 or VX-809)
Assay type: cell-based
Settings: 37° C., 24 h
Procedure: Primary CF airway epithelial cells were obtained from the UNC Cystic Fibrosis Tissue Procurement and Cell Culture Core. The cells are grown at 37° C. in a Heracell 150i incubator using growth media (BEGM, Fischer). […] Two days before the Ussing assay the mucus on the apical surface of the cells was aspirated after incubating with 200 μL of differentiation media for at least thirty (30) minutes. One day before the Ussing assay test compounds were added to the basolateral surface of the cells at various test concentrations dissolved in DMSO. Duplicate wells were prepared giving a n=3 or n=4 protocol.
Cells were treated for 24 hours with various combinations and concentrations of the test articles, reference standard (3 μM VX809 or 3 μM FDL169, positive control). Compounds stock solutions were prepared in DMSO and diluted 1/1000 into ALI media to their final assay concentration. Cells were treated with combination solutions (2 mL of each dilution) and incubated at 37° C. for 24 h.
For the equivalent current assay, cells on four Transwell (24-well) plates were treated. Each Transwell plate was filled with 200 μl of HBS on the apical surface and 2 ml on the basolateral surface. Plates were placed horizontally in a heated mount at 37° C., and equilibrated for several minutes. Resting current was measured for 15 min and then blocked by the apical addition of 5 μM benzamil. After 20 min, 10 μM forskolin and 1 μM VX770 were added to both the apical and basolateral side to stimulate CFTR. An increase in chloride current is seen as an upward deflection of the trace.
The raw data, current vs. time for the Ussing chamber (sampling interval: 10 s) and voltage vs. time and resistance vs. time for the equivalent current assay (sampling interval: 5 minutes) were transferred to Excel (Microsoft Office Professional, version 14.0.7106.5003) for analysis. […] This average is equivalent to the sum of the average forskolin activated and the average VX770-potentiated currents. The average current measured in vehicle (0.1% DMSO) treated cells, Iv, was subtracted from the current for the test article, ITA, or from the corrector reference standard VX809 (3 uM ISTD). For replicate measurements, the average vehicle subtracted response for the test article, was normalized to the average vehicle subtracted inhibitor response of the reference corrector VX809 (3 μM).
A second endpoint, for the equivalent current assay, evaluated was NAUC, the normalized area under the curve (AUC) measuring the response after addition of forskolin and VX770 to the time point right before the addition of the CFTR inhibitor. The AUC is effectively the average response multiplied by the duration of the response.
NAUCTA=[AUCTA−AUCV,ave]/[AUCVx809r,ave−AUCV,ave] (Equation 2).
Experiments were run with a minimum of n=4 replicates per concentration. Since the distribution for the ratio of two normal distributions is a Cauchy distribution, the median value must be used for the average and the average deviation must be used for the error of all normalized data.
E=Emin+(Emax−Emin)/(1+10^((LogEC5OS)*nH)) (Equation 3)

[1] = test compound 1 μM in combination with 1st site corrector FDL169 (3 μM)
[2] = test compound 3 μM in combination with 1st site corrector FDL169 (3 μM)
[3] = test compound 10 μM in combination with 1st site corrector FDL169 (3 μM)
[4] = test compound 10 μM in combination with 1st site corrector VX-809 (3 μM)
[5] = test compound 1 μM in combination with 1st site corrector VX-809 (3 μM)
[6] = test compound 3 μM in combination with 1st site corrector VX-809 (3 μM)

T1 sequence (P13569 with tags, fused parts or gaps DEL508-508): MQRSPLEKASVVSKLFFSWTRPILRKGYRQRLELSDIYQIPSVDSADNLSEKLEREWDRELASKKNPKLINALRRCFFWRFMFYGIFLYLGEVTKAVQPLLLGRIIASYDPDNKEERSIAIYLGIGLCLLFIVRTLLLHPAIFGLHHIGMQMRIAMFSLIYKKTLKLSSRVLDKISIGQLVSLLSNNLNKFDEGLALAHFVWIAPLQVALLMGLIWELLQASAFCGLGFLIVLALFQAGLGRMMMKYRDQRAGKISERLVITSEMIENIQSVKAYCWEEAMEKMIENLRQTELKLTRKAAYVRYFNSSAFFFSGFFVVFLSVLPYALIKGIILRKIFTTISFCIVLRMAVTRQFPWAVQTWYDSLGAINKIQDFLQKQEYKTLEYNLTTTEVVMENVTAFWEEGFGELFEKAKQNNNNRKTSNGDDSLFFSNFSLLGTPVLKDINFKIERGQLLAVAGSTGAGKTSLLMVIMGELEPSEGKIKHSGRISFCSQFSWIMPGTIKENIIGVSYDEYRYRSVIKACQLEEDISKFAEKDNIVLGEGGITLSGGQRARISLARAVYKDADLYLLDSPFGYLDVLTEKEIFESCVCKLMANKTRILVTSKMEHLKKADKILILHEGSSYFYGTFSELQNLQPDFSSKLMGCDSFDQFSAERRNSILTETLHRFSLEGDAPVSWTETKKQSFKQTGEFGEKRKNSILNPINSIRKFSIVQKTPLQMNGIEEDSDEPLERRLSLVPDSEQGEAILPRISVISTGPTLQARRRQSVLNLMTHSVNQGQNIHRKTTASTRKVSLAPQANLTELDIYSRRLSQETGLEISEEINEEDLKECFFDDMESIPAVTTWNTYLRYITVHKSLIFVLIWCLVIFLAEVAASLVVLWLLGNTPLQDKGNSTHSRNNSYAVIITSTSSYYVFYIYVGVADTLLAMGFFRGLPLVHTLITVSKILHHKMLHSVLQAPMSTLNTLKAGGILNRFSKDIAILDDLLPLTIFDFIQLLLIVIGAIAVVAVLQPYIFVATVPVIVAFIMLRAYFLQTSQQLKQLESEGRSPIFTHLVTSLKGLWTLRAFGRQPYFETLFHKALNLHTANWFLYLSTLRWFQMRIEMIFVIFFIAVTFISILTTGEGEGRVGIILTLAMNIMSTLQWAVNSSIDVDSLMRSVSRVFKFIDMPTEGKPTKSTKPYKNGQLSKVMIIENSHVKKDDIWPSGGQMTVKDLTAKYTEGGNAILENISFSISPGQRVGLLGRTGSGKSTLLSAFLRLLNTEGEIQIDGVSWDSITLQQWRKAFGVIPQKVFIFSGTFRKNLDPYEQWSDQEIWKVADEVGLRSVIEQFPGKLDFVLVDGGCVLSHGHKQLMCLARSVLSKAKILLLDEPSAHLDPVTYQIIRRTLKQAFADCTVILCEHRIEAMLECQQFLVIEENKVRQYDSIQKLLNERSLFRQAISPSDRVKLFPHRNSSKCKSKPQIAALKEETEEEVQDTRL

SMILES | Nauc @ 1 μM [1] | Nauc @ 3 μM [2] | Nauc @ 10 μM [4] | Nauc @ 3 μM [6] | other results
CC(C)(C)CN(C(=O)[C@H]1[C@H]2CC(F)(F)CN2[C@]2(C(=O)Nc3c(Cl)cc(Cl)cc32)[C@H]1C(=O)O)c1cc(Cl)cc(Cl)c1 [Example 110, (1′R,2′S,3R,7a′R)-5,7-dichloro-1-((3,5-dichlorophenyl)(neopentyl)carbamoyl)-6′,6′-difluoro-2-oxo-1′,2′,5′,6′,7′,7a′-hexahydrospiro[indoline-3,3′-pyrrolizine]-2′-carboxylic acid] | +++ (NAUC “+++” refers to an observed NAUC>170% of positive control) | +++ (NAUC “+++” refers to an observed NAUC>170% of positive control) |  |  | Nauc @ 10 μM [3]: + (NAUC “+” refers to an observed NAUC <140% of positive control)
CN(C(=O)[C@H]1[C@H]2CC(F)(F)CN2C2(C(=O)Nc3ccccc32)[C@H]1C(=O)O)c1cc(Cl)cc(Cl)c1 (stereo partly shown) [Example 102] |  |  | + (NAUC “+” refers to an observed NAUC <140% of positive control) |  | 
CN(C(=O)[C@H]1[C@H]2CC(F)(F)CN2[C@]2(C(=O)Nc3c(Cl)cc(Cl)cc32)[C@H]1C(=O)OCOC(=O)C(C)(C)C)c1cc(Cl)cc(Cl)c1 (racemic) [Example 251a, rac-(pivaloyloxy)methyl (1′R,2′S,3R,7a′R)-5,7-dichloro-1-((3,5-dichlorophenyl)(methyl)carbamoyl)-6′,6′-difluoro-2-oxo-1′,2′,5′,6′,7′,7a′-hexahydrospiro[indoline-3,3′-pyrrolizine]-2′-carboxylate] |  |  | + (NAUC “+” refers to an observed NAUC <140% of positive control) |  | 
Cc1nn(C)cc1N(CC1CC1)C(=O)[C@H]1[C@H]2CC(F)(F)CN2[C@]2(C(=O)Nc3c(Cl)cc(Cl)cc32)[C@H]1C(=O)O [Example 165] | + (NAUC “+” refers to an observed NAUC <140% of positive control) | + (NAUC “+” refers to an observed NAUC <140% of positive control) |  |  | 
O=C(Nc1nccc2cccnc12)[C@H]1[C@H]2CC(F)(F)CN2[C@]2(C(=O)Nc3c(Cl)cc(Cl)cc32)[C@H]1C(=O)O [Example 135] |  |  | + (NAUC “+” refers to an observed NAUC <140% of positive control) | + (NAUC “+” refers to an observed NAUC <140% of positive control) | Nauc @ 1 μM [5]: + (NAUC “+” refers to an observed NAUC <140% of positive control)
CN(C(=O)[C@H]1[C@H]2CC(F)(F)CN2C2(C(=O)Nc3cc(Cl)ccc32)[C@H]1C(=O)O)c1cc(Cl)cc(Cl)c1 (stereo partly shown) [Example 101] | + (NAUC “+” refers to an observed NAUC <140% of positive control) | + (NAUC “+” refers to an observed NAUC <140% of positive control) |  |  | 
O=C(NCCc1ccccc1Cl)C1C2CC(F)(F)CN2C2(C(=O)Nc3c(Cl)cc(Cl)cc32)C1C(=O)O (stereo not shown) [Example 50] |  |  | +++ (NAUC “+++” refers to an observed NAUC>170% of positive control) | ++ (NAUC “++” refers to an observed NAUC 170-140% of positive control) | 
Cn1ccnc1NC(=O)[C@H]1[C@@H](C(=O)Nc2cc(Cl)cc(Cl)c2)[C@H]2CCCN2[C@]12C(=O)Nc1c(Cl)cc(Cl)cc12 (single isomer, unassigned) [Example 238, (1′R,2′S,7a′R)-5,7-dichloro-N1′-(3,5-dichlorophenyl)-N2′-(1-methyl-1H-imidazol-2-yl)-2-oxo-1′,2′,5′,6′,7′,7a′-hexahydrospiro[indoline-3,3′-pyrrolizine]-1′,2′-dicarboxamide] |  |  |  | + (NAUC “+” refers to an observed NAUC <140% of positive control) | Nauc @ 1 μM [5]: + (NAUC “+” refers to an observed NAUC <140% of positive control)
O=C(O)[C@H]1[C@@H](C(=O)N(CC2CC2)c2cccc(-c3ccccc3)c2)[C@H]2CC(F)(F)CN2[C@]12C(=O)Nc1c(Cl)cc(Cl)cc12 [Example 156] | +++ (NAUC “+++” refers to an observed NAUC>170% of positive control) | +++ (NAUC “+++” refers to an observed NAUC>170% of positive control) |  |  | Nauc @ 10 μM [3]: ++ (NAUC “++” refers to an observed NAUC 170-140% of positive control)
CN(C(=O)C1C2CC(F)(F)CN2C2(C(=O)Nc3c(Cl)cc(Cl)cc32)C1C(=O)O)c1cc(Cl)cc(Cl)c1 (stereo not shown) [Example 57] |  |  | +++ (NAUC “+++” refers to an observed NAUC>170% of positive control) | +++ (NAUC “+++” refers to an observed NAUC>170% of positive control) | 
CC(=O)OCOC(=O)[C@H]1[C@@H](C(=O)N(C)c2cc(Cl)cc(Cl)c2)[C@H]2CC(F)(F)CN2C12C(=O)Nc1c(Cl)cc(Cl)cc12 (mixture of isomers) [Example 257, acetoxymethyl (1′R,2′S,3R,7a′R)-5,7-dichloro-1-((3,5-dichlorophenyl)(methyl)carbamoyl)-6′,6′-difluoro-2-oxo-1′,2′,5′,6′,7′,7a′-hexahydrospiro[indoline-3,3′-pyrrolizine]-2′-carboxylate] |  |  | +++ (NAUC “+++” refers to an observed NAUC>170% of positive control) |  | 
O=C(O)[C@H]1[C@@H](C(=O)N(c2cc(Cl)cc(Cl)c2)C2CC(O)C2)[C@H]2CC(F)(F)CN2[C@]12C(=O)Nc1c(Cl)cc(Cl)cc12 (stereo partly shown) [Example 159] | + (NAUC “+” refers to an observed NAUC <140% of positive control) | + (NAUC “+” refers to an observed NAUC <140% of positive control) |  |  | 
O=C(Nc1ccc2ccccc2c1)[C@H]1[C@H]2CC(F)(F)CN2[C@]2(C(=O)Nc3c(Cl)cc(Cl)cc32)[C@H]1C(=O)O [Example 117] |  |  | + (NAUC “+” refers to an observed NAUC <140% of positive control) | ++ (NAUC “++” refers to an observed NAUC 170-140% of positive control) | Nauc @ 1 μM [5]: + (NAUC “+” refers to an observed NAUC <140% of positive control)
O=C(O)[C@H]1[C@@H](C(=O)N(Cc2ccccc2)c2cc(Cl)cc(Cl)c2)[C@H]2CC(F)(F)CN2[C@]12C(=O)Nc1c(Cl)cc(Cl)cc12 [Example 149] | ++ (NAUC “++” refers to an observed NAUC 170-140% of positive control) | +++ (NAUC “+++” refers to an observed NAUC>170% of positive control) |  |  | Nauc @ 10 μM [3]: + (NAUC “+” refers to an observed NAUC <140% of positive control)
O=C(Nc1cc(Cl)cc(Cl)c1)C1C2CC3(CC3)CN2C2(C(=O)Nc3c(Cl)cc(Cl)cc32)C1C(=O)O (stereo not shown) [Example 16] |  |  | +++ (NAUC “+++” refers to an observed NAUC>170% of positive control) | +++ (NAUC “+++” refers to an observed NAUC>170% of positive control) | 
Cn1ccc2c(NC(=O)[C@H]3[C@H]4CC(F)(F)CN4[C@]4(C(=O)Nc5c(Cl)cc(Cl)cc54)[C@H]3C(=O)O)cccc21 [Example 141] | + (NAUC “+” refers to an observed NAUC <140% of positive control) | + (NAUC “+” refers to an observed NAUC <140% of positive control) |  |  | 
COc1cc(C(F)(F)F)cc(NC(=O)C2C3CC(F)(F)CN3C3(C(=O)Nc4c(Cl)cc(Cl)cc43)C2C(=O)O)n1 (single isomer, unassigned) [Example 80.7a.1, 5,7-dichloro-6′,6′-difluoro-1′-((6-methoxy-4-(trifluoromethyl)pyridin-2-yl)carbamoyl)-2-oxo-1′,2′,5′,6′,7′,7a′-hexahydrospiro[indoline-3,3′-pyrrolizine]-2′-carboxylic acid] |  |  | + (NAUC “+” refers to an observed NAUC <140% of positive control) |  | 
Cn1cc(N(CC2CC2)C(=O)[C@H]2[C@H]3CC(F)(F)CN3[C@]3(C(=O)Nc4c(Cl)cc(Cl)cc43)[C@H]2C(=O)O)c(C#N)n1 [Example 168] | + (NAUC “+” refers to an observed NAUC <140% of positive control) | + (NAUC “+” refers to an observed NAUC <140% of positive control) |  |  | 
